Data: article PMC9964319, “Half-Sandwich Rhodium Complexes with Releasable N-Donor Monodentate Ligands: Solution Chemical Properties and the Possibility for Acidosis Activation” (Pharmaceutics, 2023)

Assays:
testicular tumors = test system: testicular tumors; parameters: method as in doi:10.2174/2210298102666220404102936; conditions: cited from earlier work
[1] = Kinetics of mixed-ligand complex formation followed by UV-vis; type: physicochemical; conditions: complex:1-methylimidazole 1:2, pH 7.4 (phen, Figure 2) or 5.94 (en, Figure S23)
Method: Firstly, the reactions were followed by UV-vis spectrometry, and significant changes in the charge transfer bands were observed. Based on these preliminary measurements, the waiting time needed prior to measurement was determined. Generally, the reaction was faster for the RhCp* complexes than for the Ru(p-cym) analogs. […] The [Ru(p-cym)(en/phen)(H2O)]^2+ complexes reached chemical equilibrium within only hours, while the reaction between 1-methylimidazole and [RhCp*(phen)(H2O)]^2+ (Figure 2) or [RhCp*(en)(H2O)]^2+ (Figure S23) was completed within 90 min. However, the fractions of the mixed-ligand complexes cannot be determined from these spectral changes in the chemical equilibrium; thus, further experiments were carried out to determine the formation constants.
Figure 2 (a) Time-dependent UV-vis spectra of the c([RhCp*(phen)(H2O)]^2+):c(1-methylimidazole) = 1:2 mixture under physiological conditions (pH = 7.4 (PBS’ buffer)). (b) Time dependence of the absorbance values at 400 nm. {c([RhCp*(phen)(H2O)]^2+) = 200 μM; c(1-methylimidazole) = 400 μM; pH = 7.40 (PBS’); t = 25 °C; ℓ = 1 cm}.

[2] = Proton dissociation constants of the coordinated water in [M(arene)(N,N/O)(H2O)]2+/+ complexes (UV-vis titration); conditions: I = 0.10 M (KCl); t = 25.0 °C; UV-vis
Description: The proton dissociation of the aqua ligand in the [M(arene)(N,N/O)(H2O)]^2+/+ complexes (Scheme 2) results in the inert mixed-hydroxido species (general formula: [M(arene)(N,N/O)(OH)]^+/0).

physchem = conditions: water with 0.10 M KCl
Method: (§1) pH-potentiometric measurements were performed to determine the protonation constants (Kp) of the ligands and the concentration of the stock solutions. These measurements were carried out at 25.0 ± 0.1 °C in water in a pH range between 2.0 and 11.5, titrating with carbonate-free KOH solution (0.10 M). […] A Thermo Scientific 0710A0 benchtop pH meter (Waltham, MA, USA), equipped with a Metrohm combined electrode (type 6.0234.100) and a Metrohm 665 Dosimat burette (Metrohm, Herisau, Switzerland) was used for these measurements. […] The initial volume of the samples was 10.0 mL, and the ligand concentration was 2.0 mM in the samples. Samples were degassed by bubbling purified argon prior to and during the measurements. The computer program Hyperquad2013 [28] was utilized to determine the protonation constants of the ligands and concentration.
(§2) The protonation constants (Kp) were determined by pH-potentiometric and UV-vis spectrophotometric titrations in the presence of 0.1 M KCl (see Table 1 and Figures S21 and S22 for examples).

[3] = cited from earlier work
[4] = Stability of mixed-ligand complex in methanol (1H NMR in CD3OD); type: physicochemical
Description: ^1H NMR (CD3OD, ppm, 500 MHz, standard: δ 3.31 (solvent residual peak)): δ 9.76 (dd, J = 5.2 Hz, 0.87 Hz, 2H, phen-H^2,9), δ 8.99 (dd, J = 8.3 Hz, 1.2 Hz, 2H, phen-H^4,7), δ 8.49 (d, J = 5.2 Hz, 2H, Py-H^2,6), δ 8.40 (dd, J = 8.2 Hz, 5.2 Hz, 2H, phen-H^3,8), δ 8.25 (s, 2H, phen-H^5,6), δ 7.91 (tt, J = 7.7 Hz, 1.4 Hz, 1H, Py-H^4), δ 7.46 (t, J = 7.1 Hz, 2H, Py-H^3,5), δ 1.75 (s, 15H, Cp*-H^methyl). Deuteration of Cp* is visible and highlighted in the spectrum in Figure S9. A small amount (<5%) of dissociated complex is visible in equilibrium with the complex, indicating the low stability of the mixed-ligand complex even in methanol.

[5] = I = 0.10 M (KCl); t = 25.0 °C; pH-potentiometry (benzimidazole: UV-vis)
Method: as §1, §2

[6] = Fractions of mixed-ligand complexes at 1:1 ratio at pH 6.0 and 7.4 by 1H NMR (screening of monodentate ligands); type: physicochemical; conditions: pH 6.0 and 7.4
Method: In the preliminary studies, the co-ordination ability of the monodentate ligands to the [RhCp*(en)(H2O)]^2+, [RhCp*(phen)(H2O)]^2+, and [RhCp*(8HQH-1)(H2O)]^+ complexes was tested (Chart 2). The samples contained the aqua complex and the monodentate ligand in a 1:1 ratio and were buffered at pH = 6.0 and pH = 7.4. For an ideal drug candidate, all of the monodentate ligand would be bound at pH 7.4; thus, the mixed-ligand complex would be present exclusively, which dissociates completely at pH 6.0.
Figure 1 Fractions of the formed mixed-ligand [RhCp*(N,N/O)(N)]^2+/+ complexes at c(complex):c(monodentate ligand) = 1:1 ratio measured at pH = 6.0 (full bars) and 7.4 (checkered bars). Fractions were determined by the integration of the peaks in the ^1H NMR spectra. The percentage values above the columns show the difference in the fractions of the mixed-ligand complex at the two pH values. {c([RhCp*(phen)(H2O)]^2+) = c([RhCp*(en)(H2O)]^2+) = 1 mM; c([RhCp*(8HQH−1)(H2O)]^+) = 500 μM; 10% D2O; pH = 6.0 or 7.4 (PBS’); t = 25.0 °C}. […] The percentages were assigned to (N,N) = en, (N,N) = phen and (N,O) = 8HQH-1 by bar colour only.

[7] = Release of pyridine ligand from synthesized complex followed by 1H NMR; type: physicochemical
Description: The rate of the release of the monodentate ligand from the synthesized mixed-ligand complex is also of interest. Although a mixed-ligand complex with low stability should release its monodentate ligand easily, kinetic inertness has a major effect on reaching the equilibrium state. In contrast to their non-organometallic octahedral counterparts, half-sandwich Ru(II) and Rh(III) complexes have faster ligand exchange reactions.

**Q.** For `N.N.[Cl][Pt][Cl]` [Cisplatin], which cure rates (testicular tumors) is on record?
**A.** above 95%

**Q.** With `Cc1c(C)c(C)[c-](C)c1C.NCCN.O.[Rh+3]` [[RhCp*(en)(H2O)]2+] as the compound, how does the “time to completion of the reaction with 1-methylimidazole” value [1] read?
**A.** ≤ 90 min

**Q.** What about the “pKa of the coordinated water molecule” value [2] of the same compound?
**A.** 10.6±0.1

**Q.** For `c1ccc2[nH]cnc2c1` [benzimidazole], which pKa (physchem) is on record?
**A.** 5.44 ± 0.01

**Q.** What about the “logKp (= pKa), literature data” value [3] of the same compound?
**A.** 5.54 [44]

**Q.** For `Cc1c(C)c(C)[c-](C)c1C.O.[Rh+3].c1cnc2c(c1)ccc1cccnc12` [[RhCp*(phen)(H2O)]2+], which “time to completion of the reaction with 1-methylimidazole” value [1] is on record?
**A.** ≤ 90 min

**Q.** And the “pKa of the coordinated water molecule” value [2]?
**A.** 10.05±0.01

**Q.** With `Cc1c(C)c(C)[c-](C)c1C.O=S(=O)([O-])C(F)(F)F.O=S(=O)([O-])C(F)(F)F.[Rh+3].c1ccncc1.c1cnc2c(c1)ccc1cccnc12` [Complex 4] as the compound, how does the “dissociated complex in equilibrium with the complex” value [4] read?
**A.** < 5%

**Q.** With `CN` [methylamine] as the compound, how does the “logKp (= pKa)” value [5] read?
**A.** 10.58 ± 0.03

**Q.** And the “interaction (co-ordination) with the RhCp* aqua complexes” value [6]?
**A.** no interaction was found

**Q.** And the “logKp (= pKa), literature data” value [3]?
**A.** 10.51 [47]

**Q.** For `Cc1c(C)c(C)[c-](C)c1C.NCCN.O=S(=O)([O-])C(F)(F)F.O=S(=O)([O-])C(F)(F)F.[Rh+3].c1ccncc1` [Complex 2], which monodentate ligand dissociated ([7]; pH 6.0, after 5 min) is on record?
**A.** ~ 75%

**Q.** And the “released monodentate ligand at chemical equilibrium” value ([7]; pH 6.0, after half an hour)?
**A.** ~ 94%
